We go through six molecules from the supplement of paper PMC12076712.

Common to all, as to test: pIC50, kinobeads binding competition
In one assay the target is BMPR1A (UniProt P36894). The method, boiled down:
(§1)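 To obtain pIC50, fold changes versus vehicle were fitted to logistic dose-response curves (R drc package) across biological duplicates. Protein binding to Kinobeads was quantified by TMT10 LC-MS/MS of digested bead-bound proteins. Treatments used nine concentrations with a top of 30 μM, applied to live Jurkat cells in 1:4 steps for 60 min at 37 °C before lysis, or to Jurkat lysate or a 1:1:1:1 HEK293/K-562/HepG2/placenta lysate mix in 1:5 steps for 60 min at 4 °C.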

The target in the next assay is BRAF (UniProt P15056). The method, boiled down:
as §1

A further assay deals with IGF1R (UniProt P08069). The method, boiled down: as §1
For another assay, the target named is Jak2 (UniProt O60674). In a few lines: as §1
A further assay addresses LIMK1 (UniProt P53667). The method, boiled down: as §1
Another assay addresses T1, NEK1 (UniProt Q96PY6).
T1 sequence (whole entry): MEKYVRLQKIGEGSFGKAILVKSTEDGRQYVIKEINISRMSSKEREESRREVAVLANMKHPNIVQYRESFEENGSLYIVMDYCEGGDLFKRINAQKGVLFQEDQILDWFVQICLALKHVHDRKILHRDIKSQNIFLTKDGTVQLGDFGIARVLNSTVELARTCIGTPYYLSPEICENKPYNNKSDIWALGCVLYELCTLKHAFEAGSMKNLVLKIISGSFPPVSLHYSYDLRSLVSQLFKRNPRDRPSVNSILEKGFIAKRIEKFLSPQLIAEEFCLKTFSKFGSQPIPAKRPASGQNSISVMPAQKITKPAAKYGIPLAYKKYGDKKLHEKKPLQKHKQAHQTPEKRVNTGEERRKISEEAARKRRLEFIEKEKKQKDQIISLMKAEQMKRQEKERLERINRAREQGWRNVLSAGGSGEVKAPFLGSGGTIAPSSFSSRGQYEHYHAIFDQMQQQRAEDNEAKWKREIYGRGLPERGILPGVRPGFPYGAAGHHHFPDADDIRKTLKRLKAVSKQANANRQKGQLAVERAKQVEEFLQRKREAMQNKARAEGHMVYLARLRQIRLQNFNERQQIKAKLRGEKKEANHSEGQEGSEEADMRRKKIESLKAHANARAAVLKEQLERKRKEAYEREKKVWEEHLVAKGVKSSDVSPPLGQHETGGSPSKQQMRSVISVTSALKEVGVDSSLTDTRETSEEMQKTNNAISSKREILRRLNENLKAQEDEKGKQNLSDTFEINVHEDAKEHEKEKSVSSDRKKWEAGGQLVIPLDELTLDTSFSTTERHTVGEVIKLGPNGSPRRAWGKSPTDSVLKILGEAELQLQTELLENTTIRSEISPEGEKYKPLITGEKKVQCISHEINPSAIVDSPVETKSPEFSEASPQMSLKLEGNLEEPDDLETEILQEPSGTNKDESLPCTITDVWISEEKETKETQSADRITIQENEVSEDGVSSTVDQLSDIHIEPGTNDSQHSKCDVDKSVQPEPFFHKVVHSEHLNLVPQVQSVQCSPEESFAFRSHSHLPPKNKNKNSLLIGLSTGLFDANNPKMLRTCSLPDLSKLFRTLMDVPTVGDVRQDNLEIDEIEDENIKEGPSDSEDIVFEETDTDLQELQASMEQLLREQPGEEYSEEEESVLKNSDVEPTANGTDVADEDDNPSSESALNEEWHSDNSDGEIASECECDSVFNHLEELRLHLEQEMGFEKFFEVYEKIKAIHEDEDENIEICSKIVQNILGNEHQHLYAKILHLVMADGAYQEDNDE
The method, boiled down: as §1

The target of another assay is T2, UniProt O15530.
T2 sequence (whole entry): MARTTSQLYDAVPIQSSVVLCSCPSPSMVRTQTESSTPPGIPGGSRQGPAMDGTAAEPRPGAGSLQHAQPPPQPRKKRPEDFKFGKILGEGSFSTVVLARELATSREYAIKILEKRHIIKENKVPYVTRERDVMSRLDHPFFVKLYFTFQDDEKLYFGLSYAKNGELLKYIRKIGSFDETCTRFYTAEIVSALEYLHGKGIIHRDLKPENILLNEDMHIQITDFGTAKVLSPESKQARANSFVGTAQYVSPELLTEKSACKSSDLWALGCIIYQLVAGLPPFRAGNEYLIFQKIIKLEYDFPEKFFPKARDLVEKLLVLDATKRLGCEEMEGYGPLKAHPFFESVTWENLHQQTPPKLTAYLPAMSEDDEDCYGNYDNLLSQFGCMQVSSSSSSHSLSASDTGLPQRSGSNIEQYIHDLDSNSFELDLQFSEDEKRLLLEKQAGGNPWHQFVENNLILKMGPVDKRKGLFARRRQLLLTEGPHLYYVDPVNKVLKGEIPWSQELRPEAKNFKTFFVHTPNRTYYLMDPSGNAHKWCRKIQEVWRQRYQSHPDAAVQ
The method, boiled down: as §1

For another assay, the target named is UniProt O75460. In a few lines:
as §1

A further assay has as its target UniProt P35968. Conditions: cell material: Lysate mix. In a few lines:
as §1

The next assay has as its target T3, UniProt Q8TBX8.
T3 sequence (whole entry): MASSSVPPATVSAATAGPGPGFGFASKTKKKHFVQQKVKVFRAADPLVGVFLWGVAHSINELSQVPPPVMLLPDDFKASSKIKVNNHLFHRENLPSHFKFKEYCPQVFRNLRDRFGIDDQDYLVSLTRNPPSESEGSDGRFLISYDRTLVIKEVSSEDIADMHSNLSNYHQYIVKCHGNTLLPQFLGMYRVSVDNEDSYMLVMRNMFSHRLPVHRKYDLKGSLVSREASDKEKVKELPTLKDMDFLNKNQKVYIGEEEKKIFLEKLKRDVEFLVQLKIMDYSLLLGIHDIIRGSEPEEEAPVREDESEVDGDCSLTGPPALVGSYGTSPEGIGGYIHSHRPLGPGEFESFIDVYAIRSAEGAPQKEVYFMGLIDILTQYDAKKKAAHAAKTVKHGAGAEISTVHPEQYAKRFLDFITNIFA
The method, boiled down:
as §1

The target in the next assay is UniProt Q9BQI3. The method, boiled down:
as §1

Another assay deals with UniProt Q9H0K1. In a few lines: as §1
UniProt Q9H0K1, sequence (Q9H0K1 whole entry, looked up): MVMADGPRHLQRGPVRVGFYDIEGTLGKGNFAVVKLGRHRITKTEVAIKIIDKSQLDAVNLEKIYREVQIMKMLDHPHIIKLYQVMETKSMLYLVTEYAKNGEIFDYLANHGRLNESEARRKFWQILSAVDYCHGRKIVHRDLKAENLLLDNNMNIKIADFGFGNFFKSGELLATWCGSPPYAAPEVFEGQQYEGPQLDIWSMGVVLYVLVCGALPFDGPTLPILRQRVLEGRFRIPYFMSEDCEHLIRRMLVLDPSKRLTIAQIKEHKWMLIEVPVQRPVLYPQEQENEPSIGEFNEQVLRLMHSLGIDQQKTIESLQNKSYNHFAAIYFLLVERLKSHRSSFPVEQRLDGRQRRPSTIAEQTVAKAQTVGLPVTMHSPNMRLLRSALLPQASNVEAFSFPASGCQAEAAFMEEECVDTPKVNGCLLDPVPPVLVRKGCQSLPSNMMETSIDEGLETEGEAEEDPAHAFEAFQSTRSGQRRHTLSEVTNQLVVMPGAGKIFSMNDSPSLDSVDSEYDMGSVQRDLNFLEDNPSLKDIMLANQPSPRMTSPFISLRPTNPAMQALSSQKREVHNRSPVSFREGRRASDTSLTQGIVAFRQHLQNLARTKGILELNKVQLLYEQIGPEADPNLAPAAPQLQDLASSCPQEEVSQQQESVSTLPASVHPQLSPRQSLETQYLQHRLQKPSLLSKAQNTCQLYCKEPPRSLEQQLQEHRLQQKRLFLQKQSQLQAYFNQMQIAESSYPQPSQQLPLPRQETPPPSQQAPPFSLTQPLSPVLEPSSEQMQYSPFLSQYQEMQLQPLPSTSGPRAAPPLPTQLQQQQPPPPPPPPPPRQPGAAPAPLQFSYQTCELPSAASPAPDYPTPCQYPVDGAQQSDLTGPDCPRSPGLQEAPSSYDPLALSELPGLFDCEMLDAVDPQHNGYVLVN

UniProt P35968, sequence (P35968 whole entry): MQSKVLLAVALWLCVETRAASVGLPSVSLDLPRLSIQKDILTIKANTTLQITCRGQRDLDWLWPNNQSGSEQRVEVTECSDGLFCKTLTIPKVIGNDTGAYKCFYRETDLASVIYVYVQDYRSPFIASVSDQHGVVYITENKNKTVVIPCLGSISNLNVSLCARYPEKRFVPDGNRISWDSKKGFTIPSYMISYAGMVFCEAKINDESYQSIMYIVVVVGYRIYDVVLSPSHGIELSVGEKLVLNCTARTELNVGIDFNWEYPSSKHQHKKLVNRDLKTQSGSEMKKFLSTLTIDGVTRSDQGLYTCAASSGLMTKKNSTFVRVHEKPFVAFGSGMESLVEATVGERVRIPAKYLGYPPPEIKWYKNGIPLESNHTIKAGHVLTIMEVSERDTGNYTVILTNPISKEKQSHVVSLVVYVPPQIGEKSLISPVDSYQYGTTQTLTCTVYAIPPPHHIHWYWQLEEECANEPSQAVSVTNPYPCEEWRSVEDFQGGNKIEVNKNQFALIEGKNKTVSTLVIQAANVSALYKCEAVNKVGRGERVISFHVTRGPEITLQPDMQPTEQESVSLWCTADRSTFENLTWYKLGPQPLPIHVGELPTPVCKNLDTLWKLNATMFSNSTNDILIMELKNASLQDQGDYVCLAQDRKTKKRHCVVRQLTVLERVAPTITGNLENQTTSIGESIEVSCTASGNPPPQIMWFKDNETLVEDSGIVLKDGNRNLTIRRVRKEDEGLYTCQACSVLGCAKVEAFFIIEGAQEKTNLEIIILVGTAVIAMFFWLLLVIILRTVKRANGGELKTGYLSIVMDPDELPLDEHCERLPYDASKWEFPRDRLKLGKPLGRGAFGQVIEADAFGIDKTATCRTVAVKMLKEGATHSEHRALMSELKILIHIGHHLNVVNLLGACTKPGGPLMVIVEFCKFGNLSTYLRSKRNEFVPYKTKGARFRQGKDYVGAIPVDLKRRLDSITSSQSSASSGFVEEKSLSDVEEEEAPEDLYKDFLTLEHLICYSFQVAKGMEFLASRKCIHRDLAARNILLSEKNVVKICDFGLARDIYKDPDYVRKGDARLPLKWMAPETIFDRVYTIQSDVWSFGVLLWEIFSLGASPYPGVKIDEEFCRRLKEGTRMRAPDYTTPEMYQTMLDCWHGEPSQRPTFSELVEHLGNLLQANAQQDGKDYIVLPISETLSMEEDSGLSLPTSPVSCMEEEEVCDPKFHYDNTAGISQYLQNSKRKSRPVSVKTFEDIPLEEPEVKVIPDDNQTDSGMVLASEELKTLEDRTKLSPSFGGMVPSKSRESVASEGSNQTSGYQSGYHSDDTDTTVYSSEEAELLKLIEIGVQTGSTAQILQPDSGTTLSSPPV
Jak2, sequence (O60674 whole entry): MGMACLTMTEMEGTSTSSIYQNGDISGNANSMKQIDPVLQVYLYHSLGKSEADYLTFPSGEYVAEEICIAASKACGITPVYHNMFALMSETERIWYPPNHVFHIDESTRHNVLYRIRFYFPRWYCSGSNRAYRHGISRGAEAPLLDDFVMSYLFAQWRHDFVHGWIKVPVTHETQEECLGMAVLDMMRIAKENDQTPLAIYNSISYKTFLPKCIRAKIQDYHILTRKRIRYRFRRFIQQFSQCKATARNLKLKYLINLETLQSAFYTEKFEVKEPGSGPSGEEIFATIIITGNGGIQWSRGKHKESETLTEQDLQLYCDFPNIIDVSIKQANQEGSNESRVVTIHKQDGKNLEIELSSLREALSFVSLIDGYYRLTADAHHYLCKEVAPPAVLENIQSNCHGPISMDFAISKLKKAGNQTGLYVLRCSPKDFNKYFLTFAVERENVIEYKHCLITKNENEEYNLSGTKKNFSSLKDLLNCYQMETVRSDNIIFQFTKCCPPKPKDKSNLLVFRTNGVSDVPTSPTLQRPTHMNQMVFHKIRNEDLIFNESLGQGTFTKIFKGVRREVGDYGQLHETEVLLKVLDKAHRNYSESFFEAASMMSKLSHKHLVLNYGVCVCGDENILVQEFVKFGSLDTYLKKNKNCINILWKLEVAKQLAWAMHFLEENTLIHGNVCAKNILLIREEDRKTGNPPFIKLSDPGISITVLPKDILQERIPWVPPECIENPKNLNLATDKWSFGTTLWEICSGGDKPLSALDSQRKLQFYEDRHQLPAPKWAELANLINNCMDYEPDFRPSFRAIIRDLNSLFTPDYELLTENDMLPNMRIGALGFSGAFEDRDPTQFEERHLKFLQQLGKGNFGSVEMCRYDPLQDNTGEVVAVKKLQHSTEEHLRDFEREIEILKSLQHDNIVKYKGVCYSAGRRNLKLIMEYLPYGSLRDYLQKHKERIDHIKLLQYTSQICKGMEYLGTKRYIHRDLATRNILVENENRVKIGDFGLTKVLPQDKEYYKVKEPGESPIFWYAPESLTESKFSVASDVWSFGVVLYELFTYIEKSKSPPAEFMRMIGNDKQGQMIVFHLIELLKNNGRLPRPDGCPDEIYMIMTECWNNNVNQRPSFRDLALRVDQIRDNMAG
BMPR1A, sequence (P36894 whole entry): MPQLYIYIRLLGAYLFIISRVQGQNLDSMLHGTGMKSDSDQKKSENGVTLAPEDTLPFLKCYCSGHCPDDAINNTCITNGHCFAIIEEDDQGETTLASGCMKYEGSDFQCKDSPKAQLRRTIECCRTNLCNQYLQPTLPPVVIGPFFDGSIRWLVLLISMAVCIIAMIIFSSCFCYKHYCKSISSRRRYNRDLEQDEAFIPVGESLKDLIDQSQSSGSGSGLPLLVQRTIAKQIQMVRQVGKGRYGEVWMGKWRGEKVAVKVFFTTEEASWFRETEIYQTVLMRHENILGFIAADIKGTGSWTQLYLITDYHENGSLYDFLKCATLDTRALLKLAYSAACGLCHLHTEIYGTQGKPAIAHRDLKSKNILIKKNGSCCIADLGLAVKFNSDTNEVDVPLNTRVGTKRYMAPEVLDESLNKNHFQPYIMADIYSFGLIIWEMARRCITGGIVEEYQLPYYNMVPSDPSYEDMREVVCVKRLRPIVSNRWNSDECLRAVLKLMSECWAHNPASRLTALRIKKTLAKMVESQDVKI
BRAF, sequence (P15056 whole entry): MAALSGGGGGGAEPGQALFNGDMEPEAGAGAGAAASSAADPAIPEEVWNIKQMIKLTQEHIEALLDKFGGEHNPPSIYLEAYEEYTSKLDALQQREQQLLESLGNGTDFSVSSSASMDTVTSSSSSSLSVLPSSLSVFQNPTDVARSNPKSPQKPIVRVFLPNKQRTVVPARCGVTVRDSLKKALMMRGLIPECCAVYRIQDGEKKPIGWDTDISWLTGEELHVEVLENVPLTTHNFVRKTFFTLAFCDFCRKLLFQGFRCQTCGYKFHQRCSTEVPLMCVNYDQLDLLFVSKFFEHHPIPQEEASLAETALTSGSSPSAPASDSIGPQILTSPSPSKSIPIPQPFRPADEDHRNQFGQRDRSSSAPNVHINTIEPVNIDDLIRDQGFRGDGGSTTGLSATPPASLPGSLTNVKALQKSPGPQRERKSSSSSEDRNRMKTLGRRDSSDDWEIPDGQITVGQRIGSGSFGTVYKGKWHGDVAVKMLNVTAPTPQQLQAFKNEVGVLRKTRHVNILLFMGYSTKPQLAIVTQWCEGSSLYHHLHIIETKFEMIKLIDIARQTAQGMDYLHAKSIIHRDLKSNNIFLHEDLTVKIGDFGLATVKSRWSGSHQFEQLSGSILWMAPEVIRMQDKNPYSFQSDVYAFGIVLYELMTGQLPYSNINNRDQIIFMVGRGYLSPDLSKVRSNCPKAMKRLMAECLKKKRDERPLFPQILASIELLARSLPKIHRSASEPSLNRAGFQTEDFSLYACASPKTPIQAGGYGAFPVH

A word on the pIC50: it is the IC50 on a negative log10 scale, so that one unit is a factor of ten. As for `C#CCNC(=O)c1cc(Nc2cc(C)[nH]n2)nc(N2CCN(Cc3ccc(S(=O)(=O)F)cc3)CC2)n1`, the pIC50 on BMPR1A (cell material: Lysate mix) is < 4.52; at BRAF (cell material: Lysate mix), < 4.52; at IGF1R (cell material: Lysate mix) it was < 4.52; at Jak2 (cell material: Lysate mix), 4.93; at LIMK1 (cell material: Lysate mix), 5.62; at NEK1 (cell material: Lysate mix), < 4.52. The pIC50 on UniProt O15530 (cell material: Lysate mix), on UniProt O75460 (cell material: Lysate mix), at UniProt P35968, at UniProt Q8TBX8 (cell material: Lysate mix), on UniProt Q9BQI3 (cell material: Lysate mix) and at UniProt Q9H0K1 (cell material: Lysate mix) was < 4.52 throughout.
In the case of `O=C(NCCNC(=O)c1cc(Nc2cc(C3CC3)[nH]n2)nc(N2CCN(Cc3ccc(S(=O)(=O)F)cc3)CC2)n1)OC1CC/C=C/CCC1` (stereo unspecified), the pIC50 on BMPR1A (cell material: Jurkat cells), at BMPR1A (cell material: Jurkat lysate), on BMPR1A (cell material: Lysate mix), at BRAF (cell material: Jurkat cells), at BRAF (cell material: Jurkat lysate) and at BRAF (cell material: Lysate mix) was < 4.52 throughout. The pIC50 on IGF1R (cell material: Jurkat cells) is < 4.52; at IGF1R (cell material: Jurkat lysate), < 4.52; on IGF1R (cell material: Lysate mix), < 4.52; on Jak2 (cell material: Jurkat lysate), < 4.52; on Jak2 (cell material: Lysate mix), < 4.52; at LIMK1 (cell material: Jurkat cells), 6.66. Further, the pIC50 on NEK1 (cell material: Jurkat cells) was 5.43; on NEK1 (cell material: Jurkat lysate), < 4.52; at NEK1 (cell material: Lysate mix) it was < 4.52; on UniProt O15530 (cell material: Jurkat lysate), < 4.52; at UniProt O15530 (cell material: Lysate mix), < 4.52; on UniProt O75460 (cell material: Jurkat lysate), < 4.52. The pIC50 on UniProt O75460 (cell material: Lysate mix), at UniProt P35968, at UniProt Q8TBX8 (cell material: Jurkat lysate), at UniProt Q8TBX8 (cell material: Lysate mix), at UniProt Q9BQI3 (cell material: Jurkat cells) and on UniProt Q9BQI3 (cell material: Jurkat lysate) was < 4.52 each time. The pIC50 at UniProt Q9BQI3 (cell material: Lysate mix) was < 4.52; on UniProt Q9H0K1 (cell material: Jurkat cells), 5.62; at UniProt Q9H0K1 (cell material: Jurkat lysate), < 4.52; at UniProt Q9H0K1 (cell material: Lysate mix) it was < 4.52.
For the molecule `CCNC(=O)c1cc(Nc2cc(C3CC3)[nH]n2)nc(N2CCN(Cc3ccc(S(=O)(=O)F)cc3)CC2)n1`, the pIC50 is 4.87 at BMPR1A (cell material: Lysate mix); < 4.52 on BRAF (cell material: Lysate mix); < 4.52 at IGF1R (cell material: Lysate mix); 4.73 at Jak2 (cell material: Lysate mix); 6.06 on LIMK1 (cell material: Lysate mix); 4.86 at NEK1 (cell material: Lysate mix). In addition, the pIC50 was < 4.52 at UniProt O15530 (cell material: Lysate mix); < 4.52 on UniProt O75460 (cell material: Lysate mix); < 4.52 on UniProt P35968; < 4.52 on UniProt Q8TBX8 (cell material: Lysate mix); 5.06 at UniProt Q9BQI3 (cell material: Lysate mix); < 4.52 at UniProt Q9H0K1 (cell material: Lysate mix).
In the case of `Cc1cc(Nc2cc(C(=O)NCCNC(=O)OC3CC/C=C/CCC3)nc(N3CCN(Cc4ccc(S(=O)(=O)F)cc4)CC3)n2)n[nH]1` (stereo unspecified), the pIC50 at BMPR1A (cell material: Lysate mix), on BRAF (cell material: Lysate mix), at IGF1R (cell material: Lysate mix), at Jak2 (cell material: Lysate mix), on LIMK1 (cell material: Lysate mix) and at NEK1 (cell material: Lysate mix) was < 4.52 each time. Also, the pIC50 at UniProt O15530 (cell material: Lysate mix), on UniProt O75460 (cell material: Lysate mix), at UniProt P35968, on UniProt Q8TBX8 (cell material: Lysate mix), at UniProt Q9BQI3 (cell material: Lysate mix) and on UniProt Q9H0K1 (cell material: Lysate mix) was < 4.52 throughout.
As to `CCNC(=O)c1cc(Nc2cc(C)[nH]n2)nc(N2CCN(Cc3ccc(S(=O)(=O)F)cc3)CC2)n1`, the pIC50 on BMPR1A (cell material: Lysate mix) was < 4.52; at BRAF (cell material: Lysate mix), < 4.52; at IGF1R (cell material: Lysate mix), < 4.52; at Jak2 (cell material: Lysate mix) it was 4.98; on LIMK1 (cell material: Lysate mix) it was 5.74; on NEK1 (cell material: Lysate mix) it was < 4.52. The pIC50 at UniProt O15530 (cell material: Lysate mix), on UniProt O75460 (cell material: Lysate mix), on UniProt P35968, at UniProt Q8TBX8 (cell material: Lysate mix), at UniProt Q9BQI3 (cell material: Lysate mix) and on UniProt Q9H0K1 (cell material: Lysate mix) was < 4.52 each time.
Regarding `C#CCNC(=O)c1cc(Nc2cc(C3CC3)[nH]n2)nc(N2CCN(Cc3ccc(S(=O)(=O)F)cc3)CC2)n1`, the negative-log IC50 (pIC50) is 4.69 at BMPR1A (cell material: Jurkat cells); < 4.52 at BMPR1A (cell material: Jurkat lysate); 4.99 on BMPR1A (cell material: Lysate mix); 5.36 on BRAF (cell material: Jurkat cells); < 4.52 at BRAF (cell material: Jurkat lysate); < 4.52 at BRAF (cell material: Lysate mix). Also, the negative logarithm of the IC50 (pIC50) on IGF1R (cell material: Jurkat lysate) was < 4.52; on IGF1R (cell material: Lysate mix) it was < 4.52; on Jak2 (cell material: Jurkat lysate), < 4.52; on Jak2 (cell material: Lysate mix), 4.9; at LIMK1 (cell material: Jurkat cells), 6.96; at LIMK1 (cell material: Jurkat lysate), 5.99. In addition, the pIC50 was 6.32 at LIMK1 (cell material: Lysate mix); 5.94 at NEK1 (cell material: Jurkat cells); < 4.52 on NEK1 (cell material: Jurkat lysate); 5.5 at UniProt O15530 (cell material: Jurkat cells); < 4.52 at UniProt O15530 (cell material: Jurkat lysate); < 4.52 at UniProt O15530 (cell material: Lysate mix). In addition, the negative-log IC50 (pIC50) on UniProt O75460 (cell material: Jurkat cells) is < 4.52; at UniProt O75460 (cell material: Jurkat lysate) it was < 4.52; on UniProt O75460 (cell material: Lysate mix), < 4.52; on UniProt P35968 it was < 4.52; on UniProt Q8TBX8 (cell material: Jurkat cells) it was 5.4; at UniProt Q8TBX8 (cell material: Jurkat lysate), < 4.52. For the same molecule, the pIC50 at UniProt Q8TBX8 (cell material: Lysate mix) was < 4.52; on UniProt Q9BQI3 (cell material: Jurkat cells), 5.34; on UniProt Q9BQI3 (cell material: Jurkat lysate) it was < 4.52; at UniProt Q9H0K1 (cell material: Jurkat cells), 6.22; on UniProt Q9H0K1 (cell material: Jurkat lysate), < 4.52; at UniProt Q9H0K1 (cell material: Lysate mix) it was < 4.52.
